Experimental data published in publication PMC11425212 (2024).

Assays:
[1] = test system: ATF4-G4 (Pu22T) (DNA, G4) TAAGGGAGGGAGGGAAGGGAGC; assay: NMR solution structure and 1H NMR titration; settings: 10 mM K+ (structure); 50 mM K+ (titration); pH 7, 25 °C; 2.11 mM DNA with 2.4 equivalents COP
[2] = test system: ATF4-G4 (Pu22T) (DNA, G4) TAAGGGAGGGAGGGAAGGGAGC; assay: fluorescence titration; settings: 50 mM K+; 0.2 µM COP, DNA added stepwise; excitation 377 nm, emission 520-600 nm
[3] = test system: ATF4-G4 (Pu22T) (DNA, G4) TAAGGGAGGGAGGGAAGGGAGC; assay: CD melting at 264 nm; settings: 5 mM K+ (potassium phosphate); pH 7; 20 µM DNA; COP concentration not given

binding [1]: yes
Kd [2]: ~ 3.9 µM
ΔTm [3]: 25 °C
SMILES: c1c2c(cc3c1OCO3)-c1cc3ccc4c(c3c[n+]1CC2)OCO4
